Source: patent US20100048488A1, “IMMUNOMODULATORY PEPTIDES” (Syntonix Pharmaceuticals, Inc., priority 2008, published 2010)

Key:
[1] = Pharmacokinetics in SD rats (serum peptide concentration by LCMS); type: in vivo; conditions: rat, sc, single subcutaneous dose, peptide concentration 30 mg/mL; for level at 0.5 h: timepoint 0.5 hr; for level at 2 h: timepoint 2.00 hr; for level at 4 h: timepoint 4.00 hr; for level at 6 h: timepoint 6.00 hr; for level at 24 h: timepoint 24.00 hr; for level at 48 h: timepoint 48.00 hr
Description: SD Rats (3 per group) were treated with a single subcutaneous dose of either Peptide 283 or Peptide 310, at a peptide concentration of 30 mg/mL. Blood was collected at 0.5, 2, 4, 6, 24, 48 hours, serum was prepared and the peptide concentrations in serum were determined by LCMS.

[2] = Solubility by visual inspection of lyophilized peptide in buffer; type: physicochemical; conditions: for Solubility at 50 mg/mL peptide in PBS + 40 mM sodium phosphate, pH 7.4, after 30 minutes at room temperature: PBS + 40 mM sodium phosphate pH 7.4, 30 minutes room temperature; for Solubility at 100 mg/mL peptide in 100 mM sodium phosphate, pH 7.4, after 30 minutes at room temperature: 100 mM sodium phosphate pH 7.4, 30 minutes room temperature
[3] = biological target: T1, soluble human FcRn (shFcRn) (Homo sapiens, UniProt P55899); assay: Peptide-IgG competition ELISA; type: binding; conditions: 3 nM human IgG, pH 6, 37° C. 2 hours
T1 construct: made in house; host or cells: Chinese hamster ovary (CHO) cells, glutamine synthetase expression system
Description: The wells were coated with 100 μl/well of 1 μg/ml biotinylated-shFcRn in Buffer A. The plate was sealed and incubated at 37° C. for 2 hours. Afterwards, the plate was washed with 200 μl/well of Buffer B (Buffer B: 100 mM MES pH 6, 150 mM NaCl, 0.5% BSA IgG-free (Jackson ImmunoResearch, West Grove, Pa.), 0.05% Tween-20). […] To allow for mixing, the plate was rocked for 2 minutes, sealed and incubated at 37° C. for 2 hours. […] The plate was covered, incubated for 30 minutes at room temperature and washed 4 times with 200 μl/well of ice-cold buffer B. SureBlue TMB substrate solution (100 μl/well, KPL, Gaithersburg, Md.) was added and the plate was allowed to incubate at room temperature until color developed, which took 5 to 10 minutes. Once color developed, 100 μl/well of TMB stop solution (KPL, Gaithersburg, Md.) was added and the absorbance was measured at 450 nm.

T1 sequence (P55899 24-297 limits assumed): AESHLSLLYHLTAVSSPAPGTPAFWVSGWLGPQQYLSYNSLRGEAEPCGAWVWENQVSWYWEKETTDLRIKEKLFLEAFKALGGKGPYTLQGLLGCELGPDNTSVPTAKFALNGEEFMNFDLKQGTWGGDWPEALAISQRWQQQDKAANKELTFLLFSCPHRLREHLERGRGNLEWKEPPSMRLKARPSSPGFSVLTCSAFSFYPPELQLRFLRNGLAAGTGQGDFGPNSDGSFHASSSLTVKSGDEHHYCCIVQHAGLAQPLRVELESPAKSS
T1 sequence (P61769 21-119 partner): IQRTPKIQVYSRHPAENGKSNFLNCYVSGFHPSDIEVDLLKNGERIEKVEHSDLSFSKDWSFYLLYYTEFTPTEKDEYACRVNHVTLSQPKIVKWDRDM

| SMILES | level at 0.5 h [1] [ng/mL] | level at 2 h [1] [ng/mL] | level at 4 h [1] [ng/mL] | level at 6 h [1] [ng/mL] | level at 24 h [1] [ng/mL] | level at 48 h [1] [ng/mL] | Solubility at 50 mg/mL peptide in PBS + 40 mM sodium phosphate, pH 7.4, after 30 minutes at room temperature [2] | Solubility at 100 mg/mL peptide in 100 mM sodium phosphate, pH 7.4, after 30 minutes at room temperature [2] | IC50 [3] [nM] |
| --- | --- | --- | --- | --- | --- | --- | --- | --- | --- |
| CC(C)C[C@H]1C(=O)N[C@@H](Cc2ccc(O)cc2)C(=O)N2CCC[C@H]2C(=O)N[C@H](C(N)=O)CSSC(C)(C)[C@H](NC(=O)[C@H](Cc2ccccc2)NC(=O)[C@H](CCCNC(=N)N)NC(=O)CCC(=O)N[C@@H](CCCNC(=N)N)C(=O)N[C@@H](Cc2ccccc2)C(=O)N[C@@H]2C(=O)N[C@@H]([C@@H](C)O)C(=O)NCC(=O)N[C@@H](Cc3c[nH]cn3)C(=O)N[C@@H](Cc3ccccc3)C(=O)NCC(=O)N(C)CC(=O)N(C)[C@@H](CC(C)C)C(=O)N[C@@H](Cc3ccc(O)cc3)C(=O)N3CCC[C@H]3C(=O)N[C@H](C(N)=O)CSSC2(C)C)C(=O)N[C@@H]([C@@H](C)O)C(=O)NCC(=O)N[C@@H](Cc2c[nH]cn2)C(=O)N[C@@H](Cc2ccccc2)C(=O)NCC(=O)N(C)CC(=O)N1C [Peptide No. 283] | 23 ± 14 | 50 ± 16 | 66 ± 42 | 68 ± 34 | 41 ± 6 | 19 ± 4 | Insoluble | Insoluble |  |
| CC(C)C[C@H]1C(=O)N[C@@H](Cc2ccc(O)cc2)C(=O)N2CCC[C@H]2C(=O)N[C@H](C(=O)N[C@@H](CCCCN)C(N)=O)CSSC(C)(C)[C@H](NC(=O)[C@H](Cc2ccccc2)NC(=O)[C@H](CCCNC(=N)N)NC(=O)CCC(=O)N[C@@H](CCCNC(=N)N)C(=O)N[C@@H](Cc2ccccc2)C(=O)N[C@@H]2C(=O)N[C@@H]([C@@H](C)O)C(=O)NCC(=O)N[C@@H](Cc3c[nH]cn3)C(=O)N[C@@H](Cc3ccccc3)C(=O)NCC(=O)N(C)CC(=O)N(C)[C@@H](CC(C)C)C(=O)N[C@@H](Cc3ccc(O)cc3)C(=O)N3CCC[C@H]3C(=O)N[C@H](C(=O)N[C@@H](CCCCN)C(N)=O)CSSC2(C)C)C(=O)N[C@@H]([C@@H](C)O)C(=O)NCC(=O)N[C@@H](Cc2c[nH]cn2)C(=O)N[C@@H](Cc2ccccc2)C(=O)NCC(=O)N(C)CC(=O)N1C [Peptide No. 310] | 137 ± 60 | 183 ± 81 | 440 ± 156 | 557 ± 268 | 117 ± 36 | 37 ± 15 | Soluble | Soluble | 1.8 ± 1.1 |
| CC(C)C[C@H]1C(=O)N[C@@H](Cc2ccc(O)cc2)C(=O)N2CCC[C@H]2C(=O)N[C@H](C(=O)N[C@@H](CCCNC(=N)N)C(N)=O)CSSC(C)(C)[C@H](NC(=O)[C@H](Cc2ccccc2)NC(=O)[C@H](CCCNC(=N)N)NC(=O)CCC(=O)N[C@@H](CCCNC(=N)N)C(=O)N[C@@H](Cc2ccccc2)C(=O)N[C@@H]2C(=O)N[C@@H]([C@@H](C)O)C(=O)NCC(=O)N[C@@H](Cc3c[nH]cn3)C(=O)N[C@@H](Cc3ccccc3)C(=O)NCC(=O)N(C)CC(=O)N(C)[C@@H](CC(C)C)C(=O)N[C@@H](Cc3ccc(O)cc3)C(=O)N3CCC[C@H]3C(=O)N[C@H](C(=O)N[C@@H](CCCNC(=N)N)C(N)=O)CSSC2(C)C)C(=O)N[C@@H]([C@@H](C)O)C(=O)NCC(=O)N[C@@H](Cc2c[nH]cn2)C(=O)N[C@@H](Cc2ccccc2)C(=O)NCC(=O)N(C)CC(=O)N1C [Peptide No. 311] |  |  |  |  |  |  | Insoluble | Insoluble | 1.5 ± 0.7 |
